Data as given in patent US9403808B2, “Pyrazine derivatives” (Hoffmann-La Roche Inc., priority 2011, dated 2016).
pEC50: −log10 of the molar value.

Legend:
human CB1 receptors = human CB1 receptors (Homo sapiens (Human), UniProt P21554); experiment: functional cAMP assay, CB1; assay type: cell-based; settings: functional cAMP assay, CHO cells expressing human CB1; read-out: human CB1 EC50
Protocol: (§1) CHO cells expressing human CB1 or CB2 receptors are seeded 17-24 hours prior to the experiment 50.000 cells per well in a black 96 well plate with flat clear bottom (Corning Costar #3904) in DMEM (Invitrogen No. 31331), 1×HT supplement, with 10% fetal calf serum and incubated at 5% CO2 and 37° C. in a humidified incubator. The growth medium was exchanged with Krebs Ringer Bicarbonate buffer with 1 mM IBMX and incubated at 30° C. for 30 min. Compounds were added to a final assay volume of 100 μl and incubated for 30 min at 30° C. Using the cAMP-Nano-TRF detection kit the assay (Roche Diagnostics) was stopped by the addition of 50 μl lysis reagent (Tris, NaCl, 1.5% Triton X100, 2.5% NP40, 10% NaN3) and 50 μl detection solutions (20 μM mAb Alexa700-cAMP 1:1, and 48 μM Ruthenium-2-AHA-cAMP) and shaken for 2 h at room temperature. The time-resolved energy transfer is measured by a TRF reader (Evotec Technologies GmbH), equipped with a ND:YAG laser as excitation source. The plate is measured twice with the excitation at 355 nm and at the emission with a delay of 100 ns and a gate of 100 ns, total exposure time 10s at 730 (bandwidth 30 nm) or 645 nm (bandwidth 75 nm), respectively. The FRET signal is calculated as follows: FRET=T730-Alexa730-P(T645-B645) with P=Ru730-B730/Ru645-B645, where T730 is the test well measured at […], T645 is the test well measured at 645 nm, B730 and B645 are the buffer controls at 730 nm and 645 nm, respectively. cAMP content is determined from the function of a standard curve spanning from 10 μM to 0.13 nM cAMP.
(§2) EC50 values were determined using Activity Base analysis (ID Business Solution, Limited). The EC50 values for a wide range of cannabinoid agonists generated from this assay were in agreement with the values published in the scientific literature.

human CB2 receptors = human CB2 receptors (Homo sapiens (Human), UniProt P34972); experiment: functional cAMP assay, CB2; assay type: cell-based; settings: functional cAMP assay, CHO cells expressing human CB2; read-out: human CB2 EC50
human CB2 receptors, sequence (P34972 whole entry): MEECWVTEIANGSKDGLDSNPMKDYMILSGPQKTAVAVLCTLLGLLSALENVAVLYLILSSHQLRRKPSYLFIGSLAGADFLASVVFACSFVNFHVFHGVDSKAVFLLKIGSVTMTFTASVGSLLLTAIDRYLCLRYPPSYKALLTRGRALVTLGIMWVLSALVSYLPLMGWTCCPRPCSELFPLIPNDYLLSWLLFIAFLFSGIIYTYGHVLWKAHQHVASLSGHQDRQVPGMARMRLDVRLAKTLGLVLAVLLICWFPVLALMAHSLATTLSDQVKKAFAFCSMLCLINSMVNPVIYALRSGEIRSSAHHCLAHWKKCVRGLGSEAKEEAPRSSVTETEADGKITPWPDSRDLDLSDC
Protocol: as §1, §2

human CB1 receptors, sequence (P21554 whole entry): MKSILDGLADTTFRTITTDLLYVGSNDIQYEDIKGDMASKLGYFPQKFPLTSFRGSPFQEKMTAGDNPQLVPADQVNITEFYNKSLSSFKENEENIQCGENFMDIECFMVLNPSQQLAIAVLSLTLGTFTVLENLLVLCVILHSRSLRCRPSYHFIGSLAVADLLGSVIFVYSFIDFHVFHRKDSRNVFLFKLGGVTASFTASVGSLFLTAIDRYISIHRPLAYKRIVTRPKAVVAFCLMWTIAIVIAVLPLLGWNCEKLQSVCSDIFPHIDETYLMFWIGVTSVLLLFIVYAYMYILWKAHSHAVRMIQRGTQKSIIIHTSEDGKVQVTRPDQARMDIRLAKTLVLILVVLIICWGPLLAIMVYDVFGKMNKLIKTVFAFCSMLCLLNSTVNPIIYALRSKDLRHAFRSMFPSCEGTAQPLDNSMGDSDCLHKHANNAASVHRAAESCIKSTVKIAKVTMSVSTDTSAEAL

| SMILES | pEC50 (human CB1 receptors) | pEC50 (human CB2 receptors) |
| --- | --- | --- |
| CNC(=O)[C@@H](NC(=O)c1cnc(N2CC(F)(F)C2)c(OCC2CC2)n1)C(C)(C)C [Example 8, 6-Cyclopropylmethoxy-5-(3,3-difluoro-azetidin-1-yl)-pyrazine-2-carboxylic acid ((S)-2,2-dimethyl-1-methylcarbamoyl-propyl)-amide] | < 5.00 | 7.73 |
| Cc1nc(C2(NC(=O)c3cnc(N4CC(F)(F)C4)c(OCC4CC4)n3)CCC2)no1 [Example 9, 6-Cyclopropylmethoxy-5-(3,3-difluoro-azetidin-1-yl)-pyrazine-2-carboxylic acid [1-(5-methyl-[1,2,4]oxadiazol-3-yl)-cyclobutyl]-amide] | 5.89 | 7.06 |
| CC(C)(CCO)NC(=O)c1cnc(C2CC2)c(OCC2CC2)n1 [Example 10, 5-Cyclopropyl-6-cyclopropylmethoxy-pyrazine-2-carboxylic acid (3-hydroxy-1,1-dimethyl-propyl)-amide] | < 5.00 | 6.59 |
| O=C(NC1(CO)CCC1)c1cnc(C2CC2)c(OCC2CC2)n1 [Example 11, 5-Cyclopropyl-6-cyclopropylmethoxy-pyrazine-2-carboxylic acid (1-hydroxymethyl-cyclobutyl)-amide] | 5.48 | 6.91 |
| Cc1nc(C2(NC(=O)c3cnc(C4CC4)c(OCC4CC4)n3)CCC2)no1 [Example 12, 5-Cyclopropyl-6-cyclopropylmethoxy-pyrazine-2-carboxylic acid [1-(5-methyl-[1,2,4]oxadiazol-3-yl)-cyclobutyl]-amide] | < 5.00 | 7.07 |
| CCC(C)(CO)NC(=O)c1cnc(C2CC2)c(OCC2CC2)n1 (stereo not drawn) [Example 13, 5-Cyclopropyl-6-cyclopropylmethoxy-pyrazine-2-carboxylic acid (1-hydroxymethyl-1-methyl-propyl)-amide] | < 5.00 | 7.20 |
| CNC(=O)[C@@H](NC(=O)c1cnc(C2CC2)c(OCC2CC2)n1)C(C)(C)C [Example 14, 5-Cyclopropyl-6-cyclopropylmethoxy-pyrazine-2-carboxylic acid ((S)-2,2-dimethyl-1-methylcarbamoyl-propyl)-amide] | 6.81 | 8.17 |
| NC(=O)[C@@H](NC(=O)c1cnc(C2CC2)c(OCC2CC2)n1)c1ccccc1 [Example 15, 5-Cyclopropyl-6-cyclopropylmethoxy-pyrazine-2-carboxylic acid ((S)-carbamoyl-phenyl-methyl)-amide] | < 5.00 | 6.85 |
| CC(C)(O)[C@H](CC1CC1)NC(=O)c1cnc(N2CC(F)(F)C2)c(OCC2CC2)n1 [Example 16, 6-Cyclopropylmethoxy-5-(3,3-difluoro-azetidin-1-yl)-pyrazine-2-carboxylic acid ((S)-1-cyclopropylmethyl-2-hydroxy-2-methyl-propyl)-amide] | < 5.00 | 7.43 |
| CC(C)(C)C(CO)NC(=O)c1cnc(C2CC2)c(OCC2CC2)n1 (stereo not drawn) [Example 19, 5-Cyclopropyl-6-cyclopropylmethoxy-pyrazine-2-carboxylic acid (1-hydroxymethyl-2,2-dimethyl-propyl)-amide] | < 5.00 | 7.27 |
| Cc1nc([C@H](CC2CC2)NC(=O)c2cnc(N3CC(F)(F)C3)c(OCC3CC3)n2)no1 [Example 20, 6-Cyclopropylmethoxy-5-(3,3-difluoro-azetidin-1-yl)-pyrazine-2-carboxylic acid [(S)-2-cyclopropyl-1-(5-methyl-[1,2,4]oxadiazol-3-yl)-ethyl]-amide] | < 5.00 | 7.55 |
| O=C(NC(CO)C1CC1)c1cnc(N2CC(F)(F)C2)c(OCC2CC2)n1 (stereo not drawn) [Example 21, 6-Cyclopropylmethoxy-5-(3,3-difluoro-azetidin-1-yl)-pyrazine-2-carboxylic acid (1-cyclopropyl-2-hydroxy-ethyl)-amide] | < 5.00 | 7.21 |
| NC(=O)[C@@H](NC(=O)c1cnc(N2CC(F)(F)C2)c(OCC2CC2)n1)c1ccccc1 [Example 22, 6-Cyclopropylmethoxy-5-(3,3-difluoro-azetidin-1-yl)-pyrazine-2-carboxylic acid ((S)-carbamoyl-phenyl-methyl)-amide] | < 5.00 | 7.03 |
| COC(=O)[C@@H](NC(=O)c1cnc(C2CC2)c(OCC2CC2)n1)C(C)(C)C [Example 23, (S)-2-[(5-Cyclopropyl-6-cyclopropylmethoxy-pyrazine-2-carbonyl)-amino]-3,3-dimethyl-butyric acid methyl ester] | 6.80 | 8.77 |
| CNC(=O)[C@H](CC1CC1)NC(=O)c1cnc(C2CC2)c(OCC2CC2)n1 [Example 24, 5-Cyclopropyl-6-cyclopropylmethoxy-pyrazine-2-carboxylic acid ((S)-2-cyclopropyl-1-methylcarbamoyl-ethyl)-amide] | < 5.00 | 6.70 |
| CN(C)C(=O)[C@H](CC1CC1)NC(=O)c1cnc(C2CC2)c(OCC2CC2)n1 [Example 25, 5-Cyclopropyl-6-cyclopropylmethoxy-pyrazine-2-carboxylic acid ((S)-2-cyclopropyl-1-dimethylcarbamoyl-ethyl)-amide] | < 5.00 | 7.84 |
| CNC(=O)[C@H](CC(C)C)NC(=O)c1cnc(C2CC2)c(OCC2CC2)n1 [Example 26, 5-Cyclopropyl-6-cyclopropylmethoxy-pyrazine-2-carboxylic acid ((S)-3-methyl-1-methylcarbamoyl-butyl)-amide] | < 5.00 | 7.87 |
| CC(C)C[C@H](NC(=O)c1cnc(C2CC2)c(OCC2CC2)n1)C(=O)N(C)C [Example 27, 5-Cyclopropyl-6-cyclopropylmethoxy-pyrazine-2-carboxylic acid ((S)-1-dimethylcarbamoyl-3-methyl-butyl)-amide] | < 5.00 | 8.57 |
| NC(=O)[C@H](CC1CC1)NC(=O)c1cnc(C2CC2)c(OCC2CC2)n1 [Example 28, 5-Cyclopropyl-6-cyclopropylmethoxy-pyrazine-2-carboxylic acid ((S)-1-carbamoyl-2-cyclopropyl-ethyl)-amide] | < 5.00 | 7.36 |
| CC(C)C[C@H](NC(=O)c1cnc(C2CC2)c(OCC2CC2)n1)C(N)=O [Example 29, 5-Cyclopropyl-6-cyclopropylmethoxy-pyrazine-2-carboxylic acid ((S)-1-carbamoyl-3-methyl-butyl)-amide] | 5.80 | 8.39 |
| CCC(CC)(NC(=O)c1cnc(C2CC2)c(OCC2CC2)n1)C(=O)OC [Example 30, 2-[(5-Cyclopropyl-6-cyclopropylmethoxy-pyrazine-2-carbonyl)-amino]-2-ethyl-butyric acid methyl ester] | 6.59 | 8.85 |
| CNC(=O)[C@H](CC1CC1)NC(=O)c1cnc(N2CC(F)(F)C2)c(OCC2CC2)n1 [Example 31, 6-Cyclopropylmethoxy-5-(3,3-difluoro-azetidin-1-yl)-pyrazine-2-carboxylic acid ((S)-2-cyclopropyl-1-methylcarbamoyl-ethyl)-amide] | < 5.00 | 6.91 |
| CN(C)C(=O)[C@H](CC1CC1)NC(=O)c1cnc(N2CC(F)(F)C2)c(OCC2CC2)n1 [Example 32, 6-Cyclopropylmethoxy-5-(3,3-difluoro-azetidin-1-yl)-pyrazine-2-carboxylic acid ((S)-2-cyclopropyl-1-dimethylcarbamoyl-ethyl)-amide] | < 5.00 | 7.22 |
| CNC(=O)[C@H](CC(C)C)NC(=O)c1cnc(N2CC(F)(F)C2)c(OCC2CC2)n1 [Example 33, 6-Cyclopropylmethoxy-5-(3,3-difluoro-azetidin-1-yl)-pyrazine-2-carboxylic acid ((S)-3-methyl-1-methylcarbamoyl-butyl)-amide] | < 5.00 | 7.93 |
| CC(C)C[C@H](NC(=O)c1cnc(N2CC(F)(F)C2)c(OCC2CC2)n1)C(=O)N(C)C [Example 34, 6-Cyclopropylmethoxy-5-(3,3-difluoro-azetidin-1-yl)-pyrazine-2-carboxylic acid ((S)-1-dimethylcarbamoyl-3-methyl-butyl)-amide] | < 5.00 | 7.87 |
| COC(=O)[C@H](CC1CC1)NC(=O)c1cnc(C2CC2)c(OCC2CC2)n1 [Example 35, (S)-3-Cyclopropyl-2-[(5-cyclopropyl-6-cyclopropylmethoxy-pyrazine-2-carbonyl)-amino]-propionic acid methyl ester] | < 5.00 | 7.36 |
| COC(=O)[C@H](CC1CC1)NC(=O)c1cnc(N2CC(F)(F)C2)c(OCC2CC2)n1 [Example 36, (S)-3-Cyclopropyl-2-{[6-cyclopropylmethoxy-5-(3,3-difluoro-azetidin-1-yl)-pyrazine-2-carbonyl]-amino}-propionic acid methyl ester] | < 5.00 | 8.02 |
